Results: article PMC12196213, “New Insights into the Anticancer Effects and Toxicogenomic Safety of Two β-Lapachone Derivatives” (Pharmaceuticals, 2025)

Legend:
[1] = test system: L929 (murine fibroblasts); experiment: MTT cytotoxicity assay, L929; assay type: cell-based; settings: Mus musculus, L929, 72 h
Procedure: (§1) To assess the cytotoxicity of the compounds, the MTT [3-(4,5-dimethylthiazol-2-yl)-2,5-diphenyltetrazolium bromide] assay was employed. The cells (2 × 10^5/mL) were incubated with the substances at concentrations ranging from 0.78 to 25 µg/mL. β-lap was used as a positive control. After 24, 48, or 72 h of incubation, MTT was added at a concentration of 5 mg/mL. Cell viability in different treatments was compared to the negative control using the following formula: Cell viability%=mean absorbance of treated samples/mean absorbance of negative control×100 The IC50 (the concentration that inhibits 50% of cell growth compared to the negative control) was calculated using nonlinear regression in GraphPad Prism 8.0 for Windows (GraphPad Demo Software, San Diego, CA, USA). Experiments were performed in triplicate and in two independent experiments. The protocol is also described in other previous publications.

[2] = test system: HCT-116 (human colon carcinoma); experiment: MTT cytotoxicity assay, HCT-116; assay type: cell-based; settings: for IC50: Homo sapiens, HCT-116, 72 h, MTT; for selectivity index (SI): IC50 L929 / IC50 HCT-116, 72 h
Procedure: as §1, with “publications. The IC50 of normal and cancer cells was used to calculate the SI of compounds BV3 and BV5. The SI indicated the selectivity of the compounds among the normal cell line (L-929) and a cancer cell line (HCT-116, MDA-MB-231, HepG2, or HeLa). SI is a crucial parameter for therapeutic applications in upcoming clinical trials. Therefore, the following formula was used to calculate SI: SI=IC50(normal cell line)/IC50(cancer cell line)” for “publications.”

[3] = test system: HepG2 (human hepatocellular carcinoma); experiment: MTT cytotoxicity assay, HepG2; assay type: cell-based; settings: for IC50: Homo sapiens, HepG2, 72 h, MTT; for selectivity index (SI): IC50 L929 / IC50 HepG2, 72 h
Procedure: as §1, with “publications. The IC50 of normal and cancer cells was used to calculate the SI of compounds BV3 and BV5. The SI indicated the selectivity of the compounds among the normal cell line (L-929) and a cancer cell line (HCT-116, MDA-MB-231, HepG2, or HeLa). SI is a crucial parameter for therapeutic applications in upcoming clinical trials. Therefore, the following formula was used to calculate SI: SI=IC50(normal cell line)/IC50(cancer cell line)” for “publications.”

[4] = test system: MDA-MB-231 (human breast adenocarcinoma); experiment: MTT cytotoxicity assay, MDA-MB-231; assay type: cell-based; settings: for IC50: Homo sapiens, MDA-MB-231, MDA-MD-231 (so in the source), 72 h, MTT; for selectivity index (SI): IC50 L929 / IC50 MDA-MD-231, 72 h
Procedure: as §1, with “publications. The IC50 of normal and cancer cells was used to calculate the SI of compounds BV3 and BV5. The SI indicated the selectivity of the compounds among the normal cell line (L-929) and a cancer cell line (HCT-116, MDA-MB-231, HepG2, or HeLa). SI is a crucial parameter for therapeutic applications in upcoming clinical trials. Therefore, the following formula was used to calculate SI: SI=IC50(normal cell line)/IC50(cancer cell line)” for “publications.”

[5] = test system: cancer cells (HeLa, HCT-116, HepG2, MDA-MB-231); experiment: MTT cytotoxicity assay, cancer cell panel (range over lines); assay type: cell-based; settings: Homo sapiens, 72 h
Procedure: as §1

[6] = test system: HeLa cells; experiment: Annexin V-FITC / propidium iodide flow cytometry (apoptosis or necrosis); assay type: cell-based, human; settings: 48 h; for necrosis compared to negative control: BV3 at the IC50 concentration; for cell viability compared to negative control: IC50 or 2 × IC50
Procedure: The analysis was performed using flow cytometry with the Annexin V Apoptosis Detection Kit (eBioscience™, USA) following the manufacturer’s instructions. Initially, HeLa cells were incubated at a concentration of 4 × 10^5 cells/mL and treated with the compounds at their IC50 or 2 × IC50 values obtained at 48 h. β-lap was used as a positive control, and the culture medium as the negative control. After 48 h of treatment, the cells were trypsinized and centrifuged at 1200× g for 5 min. Subsequently, the cells were washed with PBS and centrifuged again. The cells were then resuspended in buffer and incubated with 5 µL of Annexin V-FITC for 10 min. Afterward, the cells were washed with the buffer, centrifuged, resuspended in the buffer, and stained with 10 µL of propidium iodide. The cells were acquired using the Guava EasyCyteHT cytometer (Merck-Millipore, Burlington, MA, USA) with Guava—Soft™ software version 2.7. A total of 5000 events were counted per treatment.

[7] = target: T1, HASPIN (Homo sapiens, UniProt Q8TF76); experiment: ADP-Glo kinase assay; assay type: biochemical; settings: 10 µM ATP, read-out: % of residual activity; for remaining activity at 1 µM: 1 µM compound; for remaining activity at 10 µM: 10 µM compound
T1 sequence (Q8TF76 470-798 limits assumed): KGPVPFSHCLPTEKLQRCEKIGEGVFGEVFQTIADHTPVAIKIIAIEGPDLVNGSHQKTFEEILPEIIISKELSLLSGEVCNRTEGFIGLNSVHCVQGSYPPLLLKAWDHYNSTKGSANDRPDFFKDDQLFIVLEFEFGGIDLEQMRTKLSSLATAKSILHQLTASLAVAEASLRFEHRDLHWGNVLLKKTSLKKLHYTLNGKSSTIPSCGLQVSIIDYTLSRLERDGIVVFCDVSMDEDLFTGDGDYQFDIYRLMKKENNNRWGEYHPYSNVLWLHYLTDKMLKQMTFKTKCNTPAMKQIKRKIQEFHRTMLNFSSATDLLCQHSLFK
Procedure: Kinase enzymatic activities of CDK5/p25, CDK9/CyclinT, HASPIN, PIM1, GSK3β, CK1ε, ABL1, and JAK3 were assayed using the luminescent ADP detection assay described in Zegzouti et al. (ADP-GloTM assay kit provided by Promega, Madison, WI, USA). Briefly, the reactions were carried out in appropriate kinase buffer, with either protein or peptide as substrate in the presence of 10 µM ATP. Assay conditions used for each kinase tested here are described in Ibrahim et al.. The Envision (PerkinElmer, Waltham, MA, USA) microplate luminometer was used to measure the transmitted signal expressed in Relative Light Unit (RLU). In order to determine the half maximal inhibitory concentration (IC50), the assays were performed in duplicate in the absence or presence of increasing doses of the tested compounds. Kinase activities are expressed in % of maximal activity, i.e., measured in the absence of inhibitor but with a similar dose of DMSO (solvent of the tested compounds).

| Structure (SMILES) | IC50 [1] | IC50 [2] | selectivity index (SI) [2] | IC50 [3] | selectivity index (SI) [3] | IC50 [4] | selectivity index (SI) [4] | IC50 [5] | early apoptosis compared to negative control [6] | necrosis compared to negative control [6] | cell viability compared to negative control [6] | remaining activity at 1 µM [7] | remaining activity at 10 µM [7] |
| --- | --- | --- | --- | --- | --- | --- | --- | --- | --- | --- | --- | --- | --- |
| CC1(C)CCC2=C(O1)c1ccccc1C(=O)C2=O [β-lap, β-Lapachone] | 4.54 µM | 0.14 µM | 32.4 | 0.12 µM | 37.8 | 3.38 µM | 1.34 | 0.12 to 3.38 µM | significantly increased | increases | reduced the number of viable cells | ≥ 100% | 91% |
| Cc1ccc(NC(=S)N/N=C2\C(=O)C3=C(OC(C)(C)CC3)c3ccccc32)cc1 [BV5, 2-(2,2-dimethyl-5-oxo-3,4-dihydro-2H-benzo[h]chromen-6(5H)-ylidene)-N-(p-tolyl)-thiocarbohydrazide] | 13.1 µM | 36.9 µM | – | 17.9 µM | – | 15.5 µM | – | 15.5 to 36.9 µM | – | – | significantly decreased cell viability | ≥ 100% | ≥ 100% |
| CC1(C)CCC2=C(O1)c1ccccc1/C(=N/NC(=S)Nc1ccc([N+](=O)[O-])cc1)C2=O [BV3, 2-(2,2-dimethyl-5-oxo-3,4-dihydro-2H-benzo[h]chromen-6(5H)-ylidene)-N-(4nitrophen-yl)thio-carbohydrazide] | 44 µM | 20.6 µM | 2.13 | 12.6 µM | 3.47 | 16.5 µM | 2.66 | 2.81 to 20.6 µM | – | increases | significantly decreased cell viability | ≥ 100% | ≥ 100% |
